One block for each compound: values may come before it. Activity calls are given as the source filed them. The rule behind the calls is not given here.
Tests used:
[1] = molecular target: Vascular endothelial growth factor receptor 3 (Homo sapiens, UniProt P35916); assay: Inhibition of VEGFR3 at 3 uM
[2] = system: SVR; assay: Antitumor activity against mouse SVR cells xenografted in nude mouse assessed as tumor inhibition at 3 mg/kg, po bid administered after 4 days tumor implantation for 10 days; assay type: functional
[3] = system: Aorta; assay: Ex vivo antiangiogenic activity in rat aortic ring assessed as inhibition of VEGF-stimulated microvessel growth; assay type: functional, tissue-based
[4] = Terminal half life in rat at 10 mg/kg, po; assay type: ADME, organism-based; design: dose 10 mg/kg, route oral; conditions: in vivo, read-out: beta t1/2 (converted)
[5] = molecular target: Tyrosine-protein kinase Lck (Homo sapiens) (UniProt P06239); assay: Inhibition of LCK at 3 uM
[6] = Plasma concentration in mouse SVR cells xenografted in nude mouse at 3 mg/kg, po bid administered after 4 days tumor implantation for 10 days measured after 2 hrs post dose; assay type: ADME, organism-based; design: dose 3 mg/kg, route oral
[7] = molecular target: Glycogen synthase kinase-3 beta (Homo sapiens) (UniProt P49841); assay: Inhibition of GSK3-beta at 3 uM
[8] = system: HUVEC; assay: Inhibition of capillary tube formation in HUVEC; assay type: functional, cell-based; conditions: Homo sapiens
[9] = system: HUVEC; assay: Cytotoxicity against HUVEC; assay type: cell-based; conditions: human
[10] = AUC (0 to infinity) in rat at 1 mg/kg, iv; assay type: ADME, organism-based; design: time infinity, dose 1 mg/kg, route intravenous; conditions: plasma
[11] = Metabolic stability in rat liver S9 fraction; assay type: ADME, subcellular
[12] = Clearance in rat at 1 mg/kg, iv; assay type: ADME, organism-based; design: dose 1 mg/kg, route intravenous; conditions: in vivo
[13] = molecular target: T1, Serine/threonine-protein kinase Chk1 (Homo sapiens) (UniProt O14757); assay: Inhibition of CHK1 at 3 uM
T1 sequence (whole entry): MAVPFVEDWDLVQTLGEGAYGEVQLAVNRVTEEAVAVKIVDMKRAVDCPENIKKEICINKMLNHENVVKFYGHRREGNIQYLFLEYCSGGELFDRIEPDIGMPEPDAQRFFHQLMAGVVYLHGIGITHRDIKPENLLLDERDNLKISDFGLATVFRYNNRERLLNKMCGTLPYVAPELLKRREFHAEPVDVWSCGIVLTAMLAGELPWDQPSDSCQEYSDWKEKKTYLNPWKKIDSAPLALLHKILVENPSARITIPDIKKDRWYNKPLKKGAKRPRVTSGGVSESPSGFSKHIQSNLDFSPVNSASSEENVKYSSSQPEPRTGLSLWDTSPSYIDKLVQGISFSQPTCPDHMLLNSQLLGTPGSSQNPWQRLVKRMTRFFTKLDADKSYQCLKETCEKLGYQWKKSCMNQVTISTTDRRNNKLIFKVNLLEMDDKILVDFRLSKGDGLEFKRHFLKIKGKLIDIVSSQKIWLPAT

[14] = Oral bioavailability in rat at 10 mg/kg; assay type: ADME, organism-based; conditions: in vivo
[15] = molecular target: Epidermal growth factor receptor (Homo sapiens, UniProt P00533); assay: Inhibition of EGFR
[16] = molecular target: Vascular endothelial growth factor receptor 1 (Homo sapiens, UniProt P17948); assay: Inhibition of VEGFR1 at 3 uM
[17] = Cmax in rat at 10 mg/kg, po; assay type: ADME, organism-based; design: dose 10 mg/kg, route oral; conditions: in vivo
[18] = molecular target: Fibroblast growth factor receptor 3 (Homo sapiens) (UniProt P22607); assay: Inhibition of FGFR3 at 3 uM
[19] = Volume of distribution in rat at 1 mg/kg, iv; assay type: ADME, organism-based; design: dose 1 mg/kg, route intravenous; conditions: in vivo
[20] = system: SVR; assay: Antitumor activity against mouse SVR cells xenografted in nude mouse assessed as tumor regressions at 3 mg/kg, po bid administered after 4 days tumor implantation for 10 days; assay type: functional
[21] = Inhibition of MAPK at 3 uM
[22] = molecular target: Dual specificity mitogen-activated protein kinase kinase 1 (Homo sapiens) (UniProt Q02750); assay: Inhibition of MEK1 at 3 uM
[23] = system: SVR; assay: Antitumor activity against mouse SVR cells xenografted in nude mouse assessed as tumor inhibition at 1 mg/kg, po bid administered after 4 days tumor implantation for 10 days; assay type: functional
[24] = molecular target: Insulin receptor (Homo sapiens, UniProt P06213); assay: Inhibition of insulin receptor
[25] = molecular target: Tyrosine-protein kinase Yes (Homo sapiens) (UniProt P07947); assay: Inhibition of YES at 3 uM
[26] = molecular target: Tyrosine-protein kinase Lyn (Homo sapiens) (UniProt P07948); assay: Inhibition of Lyn at 3 uM
[27] = Terminal half life in rat at 1 mg/kg, iv; assay type: ADME, organism-based; design: dose 1 mg/kg, route intravenous; conditions: in vivo, read-out: beta t1/2 (converted)
[28] = molecular target: T2, Vascular endothelial growth factor receptor 2 (Homo sapiens, UniProt P35968); assay: Inhibition of human recombinant VEGFR2 by time resolved fluorescence measurements
[29] = Plasma concentration in mouse SVR cells xenografted in nude mouse at 1 mg/kg, po bid administered after 4 days tumor implantation for 10 days measured after 2 hrs post dose; assay type: ADME, organism-based; design: dose 1 mg/kg, route oral
[30] = Inhibition of CDK at 3 uM
[31] = Inhibition of cytochrome P450
[32] = Inhibition of JNK at 3 uM
[33] = AUC (0 to infinity) in rat at 10 mg/kg, po; assay type: ADME, organism-based; design: time infinity, dose 10 mg/kg, route oral; conditions: plasma
[34] = molecular target: T2, Vascular endothelial growth factor receptor 2; assay: Inhibition of VEGF-stimulated VEGFR2 autophosphorylation in HUVEC
[35] = Inhibition of PKC at 3 uM
[36] = molecular target: Tyrosine-protein kinase Fyn (Homo sapiens) (UniProt P06241); assay: Inhibition of Fyn at 3 uM
[37] = molecular target: Angiopoietin-1 receptor (Homo sapiens, UniProt Q02763); assay: Inhibition of human recombinant TIE-2 by time resolved fluorescence measurements
[38] = molecular target: Tyrosine-protein kinase Blk (Homo sapiens) (UniProt P51451); assay: Inhibition of Blk at 3 uM
[39] = molecular target: Platelet-derived growth factor receptor beta (Homo sapiens) (UniProt P09619); assay: Inhibition of PDGFRbeta at 3 uM
[40] = system: SVR; assay: Antitumor activity against mouse SVR cells xenografted in nude mouse assessed as complete tumor regressions at 1 mg/kg, po bid administered after 4 days tumor implantation for 10 days; assay type: functional
[41] = system: SVR; assay: Antitumor activity against mouse SVR cells xenografted in nude mouse assessed as partial tumor regressions at 1 mg/kg, po bid administered after 4 days tumor implantation for 10 days; assay type: functional

T2 sequence (P35968 whole entry): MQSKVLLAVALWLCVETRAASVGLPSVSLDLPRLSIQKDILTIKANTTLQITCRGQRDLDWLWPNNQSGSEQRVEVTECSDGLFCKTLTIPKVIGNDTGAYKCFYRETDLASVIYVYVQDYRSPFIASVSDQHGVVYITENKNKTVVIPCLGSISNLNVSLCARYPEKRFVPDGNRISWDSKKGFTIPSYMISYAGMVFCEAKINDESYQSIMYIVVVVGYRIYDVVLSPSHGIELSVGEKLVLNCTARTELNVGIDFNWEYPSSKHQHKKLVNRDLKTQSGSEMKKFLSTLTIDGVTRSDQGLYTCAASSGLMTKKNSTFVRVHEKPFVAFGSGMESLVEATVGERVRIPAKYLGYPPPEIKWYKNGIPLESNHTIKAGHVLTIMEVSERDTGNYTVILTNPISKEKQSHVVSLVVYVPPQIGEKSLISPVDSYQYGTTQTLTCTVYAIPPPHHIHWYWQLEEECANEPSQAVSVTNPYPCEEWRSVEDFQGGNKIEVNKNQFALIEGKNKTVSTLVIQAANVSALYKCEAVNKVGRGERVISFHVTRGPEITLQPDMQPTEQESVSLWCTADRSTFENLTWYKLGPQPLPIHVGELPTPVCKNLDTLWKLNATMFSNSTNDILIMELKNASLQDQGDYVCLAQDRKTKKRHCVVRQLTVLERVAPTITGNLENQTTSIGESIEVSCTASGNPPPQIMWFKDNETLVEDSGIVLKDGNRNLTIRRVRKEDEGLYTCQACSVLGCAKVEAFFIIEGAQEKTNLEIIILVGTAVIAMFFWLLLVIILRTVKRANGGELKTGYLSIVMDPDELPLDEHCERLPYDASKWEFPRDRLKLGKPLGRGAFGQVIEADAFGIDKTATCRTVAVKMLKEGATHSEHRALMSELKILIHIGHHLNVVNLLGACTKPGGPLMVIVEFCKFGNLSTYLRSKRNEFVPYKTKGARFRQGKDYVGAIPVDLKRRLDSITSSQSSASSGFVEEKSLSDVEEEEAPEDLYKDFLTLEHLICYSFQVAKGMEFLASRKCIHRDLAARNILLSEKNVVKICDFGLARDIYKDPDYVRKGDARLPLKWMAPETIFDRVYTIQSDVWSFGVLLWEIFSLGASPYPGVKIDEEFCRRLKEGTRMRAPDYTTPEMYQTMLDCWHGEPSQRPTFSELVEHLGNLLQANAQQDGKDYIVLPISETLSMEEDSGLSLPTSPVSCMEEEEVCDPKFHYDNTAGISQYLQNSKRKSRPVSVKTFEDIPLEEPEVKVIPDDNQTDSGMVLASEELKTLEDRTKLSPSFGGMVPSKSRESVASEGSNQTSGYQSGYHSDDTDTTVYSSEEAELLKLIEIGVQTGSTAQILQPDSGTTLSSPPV
Chain of Tyrosine-protein kinase Lyn (Homo sapiens) (P07948 2-512 limits assumed): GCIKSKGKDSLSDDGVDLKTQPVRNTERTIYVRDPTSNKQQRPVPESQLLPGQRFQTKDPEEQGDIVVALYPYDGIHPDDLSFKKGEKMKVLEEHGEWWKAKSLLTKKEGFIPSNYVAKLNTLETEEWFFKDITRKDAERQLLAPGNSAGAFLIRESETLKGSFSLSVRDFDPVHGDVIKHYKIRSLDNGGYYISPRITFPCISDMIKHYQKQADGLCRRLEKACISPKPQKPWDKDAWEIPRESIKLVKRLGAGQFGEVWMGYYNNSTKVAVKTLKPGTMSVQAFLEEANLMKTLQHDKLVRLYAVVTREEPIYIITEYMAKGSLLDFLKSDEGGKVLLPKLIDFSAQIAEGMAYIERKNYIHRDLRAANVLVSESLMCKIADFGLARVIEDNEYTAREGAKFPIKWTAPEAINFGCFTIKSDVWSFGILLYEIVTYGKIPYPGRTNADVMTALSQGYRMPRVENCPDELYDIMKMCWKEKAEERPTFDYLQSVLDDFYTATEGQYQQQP
Chain of Tyrosine-protein kinase Fyn (Homo sapiens) (P06241 2-537 limits assumed): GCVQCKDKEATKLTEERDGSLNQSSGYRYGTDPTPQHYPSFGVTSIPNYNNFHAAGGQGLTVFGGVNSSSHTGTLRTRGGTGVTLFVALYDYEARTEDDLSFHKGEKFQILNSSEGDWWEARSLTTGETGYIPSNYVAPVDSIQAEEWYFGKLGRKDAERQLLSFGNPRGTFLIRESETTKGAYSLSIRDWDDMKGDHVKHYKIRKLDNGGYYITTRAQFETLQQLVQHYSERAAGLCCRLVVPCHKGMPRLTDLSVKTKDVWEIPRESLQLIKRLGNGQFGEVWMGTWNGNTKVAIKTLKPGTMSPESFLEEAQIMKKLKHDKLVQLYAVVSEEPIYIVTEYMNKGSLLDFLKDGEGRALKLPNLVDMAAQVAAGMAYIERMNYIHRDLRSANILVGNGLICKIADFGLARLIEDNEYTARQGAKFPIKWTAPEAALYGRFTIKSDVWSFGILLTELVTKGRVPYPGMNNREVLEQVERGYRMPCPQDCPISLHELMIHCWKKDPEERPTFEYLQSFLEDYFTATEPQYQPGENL
Chain of Epidermal growth factor receptor (P00533 whole entry): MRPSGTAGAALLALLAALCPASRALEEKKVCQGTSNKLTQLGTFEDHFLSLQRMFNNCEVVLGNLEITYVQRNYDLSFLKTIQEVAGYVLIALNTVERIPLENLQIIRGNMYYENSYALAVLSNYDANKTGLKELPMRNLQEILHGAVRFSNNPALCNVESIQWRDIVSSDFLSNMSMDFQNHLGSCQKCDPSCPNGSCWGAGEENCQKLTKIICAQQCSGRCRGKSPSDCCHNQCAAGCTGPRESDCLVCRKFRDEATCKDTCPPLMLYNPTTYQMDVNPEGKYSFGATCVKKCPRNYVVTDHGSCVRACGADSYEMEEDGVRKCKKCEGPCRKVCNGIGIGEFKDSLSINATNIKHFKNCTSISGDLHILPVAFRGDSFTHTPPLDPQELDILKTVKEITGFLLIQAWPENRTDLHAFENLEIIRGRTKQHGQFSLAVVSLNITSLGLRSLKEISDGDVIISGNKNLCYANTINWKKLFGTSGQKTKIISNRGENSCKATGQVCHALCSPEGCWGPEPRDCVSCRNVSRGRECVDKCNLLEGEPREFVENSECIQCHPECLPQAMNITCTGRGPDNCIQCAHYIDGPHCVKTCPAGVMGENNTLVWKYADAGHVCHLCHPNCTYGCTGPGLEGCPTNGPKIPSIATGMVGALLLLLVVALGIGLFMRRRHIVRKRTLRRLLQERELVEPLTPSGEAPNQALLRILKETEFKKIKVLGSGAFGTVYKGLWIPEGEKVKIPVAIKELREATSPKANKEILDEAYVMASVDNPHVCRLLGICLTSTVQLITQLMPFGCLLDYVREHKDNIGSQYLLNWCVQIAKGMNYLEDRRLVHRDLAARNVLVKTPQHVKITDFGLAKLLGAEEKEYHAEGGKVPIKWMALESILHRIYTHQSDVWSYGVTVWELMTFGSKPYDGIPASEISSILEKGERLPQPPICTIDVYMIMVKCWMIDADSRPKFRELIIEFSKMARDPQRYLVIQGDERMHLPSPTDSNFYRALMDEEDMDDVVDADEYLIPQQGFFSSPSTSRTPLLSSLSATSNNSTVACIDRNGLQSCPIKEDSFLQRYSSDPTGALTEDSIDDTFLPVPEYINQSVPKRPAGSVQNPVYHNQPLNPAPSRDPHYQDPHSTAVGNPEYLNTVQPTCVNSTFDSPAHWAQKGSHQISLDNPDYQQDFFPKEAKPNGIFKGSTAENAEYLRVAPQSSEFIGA
Chain of Glycogen synthase kinase-3 beta (Homo sapiens) (P49841 whole entry, looked up): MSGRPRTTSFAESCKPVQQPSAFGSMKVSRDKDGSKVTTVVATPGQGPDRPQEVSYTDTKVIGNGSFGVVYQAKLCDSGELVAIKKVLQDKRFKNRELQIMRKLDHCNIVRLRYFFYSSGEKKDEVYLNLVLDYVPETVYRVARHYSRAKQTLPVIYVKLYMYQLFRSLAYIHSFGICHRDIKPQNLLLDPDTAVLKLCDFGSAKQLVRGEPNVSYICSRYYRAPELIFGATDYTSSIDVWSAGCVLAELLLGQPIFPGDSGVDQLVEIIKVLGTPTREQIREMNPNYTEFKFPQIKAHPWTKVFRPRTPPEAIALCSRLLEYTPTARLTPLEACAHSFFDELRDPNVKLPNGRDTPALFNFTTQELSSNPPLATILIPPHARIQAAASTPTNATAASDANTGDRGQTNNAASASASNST
Chain of Dual specificity mitogen-activated protein kinase kinase 1 (Homo sapiens) (Q02750 whole entry): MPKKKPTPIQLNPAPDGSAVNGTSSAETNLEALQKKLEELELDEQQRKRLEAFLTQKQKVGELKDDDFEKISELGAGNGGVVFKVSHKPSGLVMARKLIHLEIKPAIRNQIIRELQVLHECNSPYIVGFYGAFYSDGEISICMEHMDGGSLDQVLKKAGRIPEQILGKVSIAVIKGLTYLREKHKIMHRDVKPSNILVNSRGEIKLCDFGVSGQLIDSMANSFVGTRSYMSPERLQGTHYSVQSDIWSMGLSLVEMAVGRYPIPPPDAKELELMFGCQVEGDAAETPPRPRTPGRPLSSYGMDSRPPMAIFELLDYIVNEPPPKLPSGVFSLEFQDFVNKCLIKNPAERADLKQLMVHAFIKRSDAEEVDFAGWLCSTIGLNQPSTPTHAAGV
Chain of Tyrosine-protein kinase Yes (Homo sapiens) (P07947 2-543 limits assumed): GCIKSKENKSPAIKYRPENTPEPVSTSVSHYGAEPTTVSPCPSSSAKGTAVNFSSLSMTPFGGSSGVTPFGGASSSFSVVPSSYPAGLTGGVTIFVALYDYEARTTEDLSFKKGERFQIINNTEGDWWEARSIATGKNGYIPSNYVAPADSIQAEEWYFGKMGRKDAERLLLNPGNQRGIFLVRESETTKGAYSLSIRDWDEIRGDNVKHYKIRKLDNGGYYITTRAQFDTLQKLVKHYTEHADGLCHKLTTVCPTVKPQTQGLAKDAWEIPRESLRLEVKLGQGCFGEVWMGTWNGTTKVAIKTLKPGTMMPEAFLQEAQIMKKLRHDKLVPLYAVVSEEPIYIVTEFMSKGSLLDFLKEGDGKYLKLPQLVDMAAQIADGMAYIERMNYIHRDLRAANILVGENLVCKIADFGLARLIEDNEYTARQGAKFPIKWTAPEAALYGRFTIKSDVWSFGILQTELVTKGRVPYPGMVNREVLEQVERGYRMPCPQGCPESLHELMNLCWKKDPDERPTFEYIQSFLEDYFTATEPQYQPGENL

IC50 [1]: 5 nM
half-life [4]: 2.8 h
inhibition [5]: > 90%
concentration at 2 h [6]: 900 nM
inhibition [7]: inactive
AUC(0-inf) [10]: 1160 ng·h/mL
Stability [11]: Stable
clearance [12]: 15 mL/min/kg
inhibition [13]: inactive
bioavailability [14]: 16%
IC50 [15]: > 1000 nM
IC50 [16]: 28 nM
Cmax [17]: 255 ng/mL
inhibition [18]: 100%
Vd [19]: 2 L/kg
inhibition [21]: inactive
inhibition [22]: inactive
IC50 [24]: > 1000 nM
inhibition [25]: > 90%
inhibition [26]: > 90%
half-life [27]: 1.5 h
IC50 [28]: 24 nM
concentration at 2 h [29]: 158 nM
inhibition [30]: inactive
INH [31]: > 10 µM
inhibition [32]: inactive
AUC(0-inf) [33]: 1890 ng·h/mL
IC50 [34]: 10 nM
inhibition [35]: inactive
inhibition [36]: > 90%
IC50 [37]: 10 nM
inhibition [38]: > 90%
inhibition [39]: > 90%
Compound: CCCCn1c2ccc(C3CCCCO3)cc2c2c3c(c4c(c21)CCc1nn(C)cc1-4)C(=O)NC3 (racemic)
inhibition in vivo at 3 mg/kg [2]: 63%
EC50 [3]: 1.2 nM
EC50 [8]: 0.6 nM
Activity [9]: Non-toxic
Activity [20]: 10%
inhibition in vivo at 1 mg/kg [23]: 52%

IC50 [1]: 9 nM
half-life [4]: 3.9 h
inhibition [5]: > 90%
concentration at 2 h [6]: 950 nM
inhibition [7]: inactive
AUC(0-inf) [10]: 862 ng·h/mL
Stability [11]: Stable
clearance [12]: 20 mL/min/kg
inhibition [13]: inactive
bioavailability [14]: 15%
IC50 [15]: > 1000 nM
IC50 [16]: 16 nM
Cmax [17]: 154 ng/mL
inhibition [18]: 100%
Vd [19]: 3.2 L/kg
inhibition [21]: inactive
inhibition [22]: inactive
IC50 [24]: > 1000 nM
inhibition [25]: > 90%
inhibition [26]: > 90%
half-life [27]: 1.9 h
IC50 [28]: 11 nM
concentration at 2 h [29]: 321 nM
inhibition [30]: inactive
INH [31]: > 10 µM
inhibition [32]: inactive
AUC(0-inf) [33]: 1260 ng·h/mL
IC50 [34]: 10 nM
inhibition [35]: inactive
inhibition [36]: > 90%
IC50 [37]: 3 nM
inhibition [38]: > 90%
inhibition [39]: > 90%
Compound: CC(C)Cn1c2ccc(C3CCCCO3)cc2c2c3c(c4c(c21)CCc1nn(C)cc1-4)C(=O)NC3 (racemic)
inhibition in vivo at 3 mg/kg [2]: 61%
EC50 [3]: 0.9 nM
EC50 [8]: 2 nM
Activity [9]: Non-toxic
Activity [20]: 10%
inhibition in vivo at 1 mg/kg [23]: 59%
Activity [40]: 10%
Activity [41]: 10%

From ChEMBL document CHEMBL1155474, “8-THP-DHI analogs as potent Type I dual TIE-2/VEGF-R2 receptor tyrosine kinase inhibitors” (Bioorg Med Chem Lett, 2010)
